Experimental findings from ChEMBL document CHEMBL1201862, “PubChem BioAssay data set” (2004) are described below.

For one test, the target named is T1, Protein RecA (Mycobacterium tuberculosis, UniProt P9WHJ3).
T1 sequence (P9WHJ3 whole entry): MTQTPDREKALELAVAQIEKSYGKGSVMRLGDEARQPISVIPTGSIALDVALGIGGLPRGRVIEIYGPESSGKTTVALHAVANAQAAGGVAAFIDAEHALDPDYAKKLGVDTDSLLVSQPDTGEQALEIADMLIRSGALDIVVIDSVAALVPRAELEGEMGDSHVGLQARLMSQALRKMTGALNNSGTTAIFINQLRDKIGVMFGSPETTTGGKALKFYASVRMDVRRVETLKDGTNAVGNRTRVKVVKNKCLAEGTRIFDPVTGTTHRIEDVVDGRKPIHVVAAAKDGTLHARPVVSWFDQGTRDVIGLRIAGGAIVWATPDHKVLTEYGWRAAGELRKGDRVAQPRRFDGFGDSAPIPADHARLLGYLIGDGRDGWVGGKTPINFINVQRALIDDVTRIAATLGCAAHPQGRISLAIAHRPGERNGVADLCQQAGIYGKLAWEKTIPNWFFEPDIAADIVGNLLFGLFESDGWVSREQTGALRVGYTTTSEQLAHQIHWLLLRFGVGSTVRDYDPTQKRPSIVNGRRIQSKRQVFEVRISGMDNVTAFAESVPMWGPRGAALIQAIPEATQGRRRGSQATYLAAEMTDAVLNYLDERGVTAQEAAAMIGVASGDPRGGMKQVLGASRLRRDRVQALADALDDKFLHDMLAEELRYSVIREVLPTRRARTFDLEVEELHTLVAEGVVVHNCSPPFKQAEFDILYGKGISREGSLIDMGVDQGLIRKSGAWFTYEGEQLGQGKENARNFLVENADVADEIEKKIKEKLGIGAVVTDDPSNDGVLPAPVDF
Briefly: Fluorescence Cell-Free Homogeneous Dose Retest to Identify Inhibitors of RecA-Intein Splicing Activity. [Related pubchem assays (depositor defined):AID2097, AID2223, AID489010, AID492950]. The test is classed as functional.

Test [1] deals with T2, Replicative DNA helicase DnaB (Mycobacterium tuberculosis, UniProt P9WMR3).
T2 sequence (P9WMR3 whole entry): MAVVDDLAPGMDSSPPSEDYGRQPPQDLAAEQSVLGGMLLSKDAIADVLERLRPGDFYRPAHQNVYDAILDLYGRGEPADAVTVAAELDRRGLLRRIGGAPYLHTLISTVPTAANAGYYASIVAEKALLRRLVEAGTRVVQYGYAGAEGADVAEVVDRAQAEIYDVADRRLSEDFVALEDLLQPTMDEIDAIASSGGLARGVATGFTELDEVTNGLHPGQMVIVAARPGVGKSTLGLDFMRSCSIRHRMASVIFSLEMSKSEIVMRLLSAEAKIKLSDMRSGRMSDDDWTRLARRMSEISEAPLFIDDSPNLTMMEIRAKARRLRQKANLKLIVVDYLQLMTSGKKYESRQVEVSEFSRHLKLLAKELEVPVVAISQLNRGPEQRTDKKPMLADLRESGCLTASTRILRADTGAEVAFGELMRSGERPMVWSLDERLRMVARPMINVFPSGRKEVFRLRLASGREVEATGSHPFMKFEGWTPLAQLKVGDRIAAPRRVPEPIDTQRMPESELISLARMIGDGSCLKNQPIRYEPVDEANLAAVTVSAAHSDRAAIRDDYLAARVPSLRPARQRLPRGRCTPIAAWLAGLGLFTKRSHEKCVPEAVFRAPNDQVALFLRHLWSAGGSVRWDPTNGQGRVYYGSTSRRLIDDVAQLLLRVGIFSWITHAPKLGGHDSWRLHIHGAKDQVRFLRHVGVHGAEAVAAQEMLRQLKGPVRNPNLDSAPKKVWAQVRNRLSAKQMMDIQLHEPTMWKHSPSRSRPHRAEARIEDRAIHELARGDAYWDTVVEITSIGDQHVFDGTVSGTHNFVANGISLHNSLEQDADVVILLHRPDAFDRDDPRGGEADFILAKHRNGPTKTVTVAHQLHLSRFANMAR
Kind of test: DnaB intein splicing inhibitors, dose response, biochemical, cell-free fluorescence (AID 449749). It counts as functional.

Test [2] has as its target T3, Heat shock factor protein 1 (Mus musculus, UniProt P38532).
T3 sequence (P38532 whole entry): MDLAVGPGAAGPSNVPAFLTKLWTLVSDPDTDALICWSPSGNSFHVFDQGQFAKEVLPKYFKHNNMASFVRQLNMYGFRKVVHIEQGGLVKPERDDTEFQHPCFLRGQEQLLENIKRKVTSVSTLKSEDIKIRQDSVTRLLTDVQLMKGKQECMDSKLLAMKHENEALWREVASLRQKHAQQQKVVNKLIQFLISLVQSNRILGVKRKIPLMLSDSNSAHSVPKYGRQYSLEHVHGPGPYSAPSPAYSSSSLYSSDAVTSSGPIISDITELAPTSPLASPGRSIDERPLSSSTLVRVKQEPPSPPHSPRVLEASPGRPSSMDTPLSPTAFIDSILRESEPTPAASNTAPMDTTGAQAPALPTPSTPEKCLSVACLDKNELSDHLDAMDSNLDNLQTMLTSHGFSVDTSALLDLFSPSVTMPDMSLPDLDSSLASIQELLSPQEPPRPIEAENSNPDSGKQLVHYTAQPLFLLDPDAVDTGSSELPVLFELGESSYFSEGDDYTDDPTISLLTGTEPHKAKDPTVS
Kind of test: HSF1 potentiators in luciferase reporter cells, confirmation, cell-based, NIH3T3, luminescence, dose retest (AID 435004).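 Further: stress induced by proteasome inhibitor MG132 added 30 min after compound; luciferase reporter driven by HSF1 response element in NIH3T3 cells; actives raise luminescence as potentiators of the MG132 stress response.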 It counts as functional.

Test [3] is described as follows: Luminescence Cell-Based Dose Confirmation HTS to Identify Inhibitors of Platelet Dense Granule Release. [Related pubchem assays: 1663 (Primary HTS), 1678 (Summary of Project)]. It counts as functional.
Test [4] has as its target Luciferin 4-monooxygenase (Photinus pyralis, UniProt P08659). Briefly: firefly luciferase enzyme inhibitors, dose response, biochemical, luminescence (AID 1891).
Test [5] is described as follows: Luminescence Cell-Based Dose Retest to Confirm Inhibitors of Cancer Stem Cells. [Related pubchem assays (depositor defined):AID2717, AID2721]. The test is classed as functional. The conditions noted are these: Homo sapiens.
Test [6] has as its target T4, Corticotropin-releasing factor receptor 2/Corticotropin-releasing factor-binding protein (Homo sapiens, UniProt P24387+Q13324).
T4 sequence (Q13324 whole entry): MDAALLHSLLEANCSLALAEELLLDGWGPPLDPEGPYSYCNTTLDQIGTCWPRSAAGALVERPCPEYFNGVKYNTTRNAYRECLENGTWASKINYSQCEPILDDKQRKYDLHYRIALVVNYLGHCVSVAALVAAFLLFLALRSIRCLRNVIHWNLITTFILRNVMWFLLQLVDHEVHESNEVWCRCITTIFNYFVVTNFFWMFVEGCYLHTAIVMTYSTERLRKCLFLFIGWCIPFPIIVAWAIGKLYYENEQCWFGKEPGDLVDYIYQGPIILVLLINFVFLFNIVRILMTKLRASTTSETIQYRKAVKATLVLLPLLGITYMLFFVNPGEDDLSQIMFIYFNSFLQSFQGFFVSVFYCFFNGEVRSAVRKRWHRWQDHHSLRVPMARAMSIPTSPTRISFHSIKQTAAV
T4 sequence (P24387 whole entry): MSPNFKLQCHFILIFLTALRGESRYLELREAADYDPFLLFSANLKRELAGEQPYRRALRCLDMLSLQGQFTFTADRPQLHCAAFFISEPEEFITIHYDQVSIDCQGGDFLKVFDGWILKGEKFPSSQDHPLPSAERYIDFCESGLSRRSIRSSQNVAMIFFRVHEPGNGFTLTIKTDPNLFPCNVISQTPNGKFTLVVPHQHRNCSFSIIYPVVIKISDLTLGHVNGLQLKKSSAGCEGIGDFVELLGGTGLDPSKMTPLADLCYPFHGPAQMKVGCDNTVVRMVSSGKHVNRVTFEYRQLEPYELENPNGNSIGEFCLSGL
Briefly: activators of CRF receptor 2 with binding protein – uHTS hits, confirmation (AID 602473). The test is classed as functional. The conditions noted are these: read-out: EC50_Mean.

One may read the AC50 as the midpoint of the concentration-response curve, whichever way the signal moves.

Calls of active or inactive are those of the source. For most assays here, no stated cut-off is given here; in the data, actives have a measured EC50 and inactives only a lower limit.

Sequence of Luciferin 4-monooxygenase (P08659 whole entry): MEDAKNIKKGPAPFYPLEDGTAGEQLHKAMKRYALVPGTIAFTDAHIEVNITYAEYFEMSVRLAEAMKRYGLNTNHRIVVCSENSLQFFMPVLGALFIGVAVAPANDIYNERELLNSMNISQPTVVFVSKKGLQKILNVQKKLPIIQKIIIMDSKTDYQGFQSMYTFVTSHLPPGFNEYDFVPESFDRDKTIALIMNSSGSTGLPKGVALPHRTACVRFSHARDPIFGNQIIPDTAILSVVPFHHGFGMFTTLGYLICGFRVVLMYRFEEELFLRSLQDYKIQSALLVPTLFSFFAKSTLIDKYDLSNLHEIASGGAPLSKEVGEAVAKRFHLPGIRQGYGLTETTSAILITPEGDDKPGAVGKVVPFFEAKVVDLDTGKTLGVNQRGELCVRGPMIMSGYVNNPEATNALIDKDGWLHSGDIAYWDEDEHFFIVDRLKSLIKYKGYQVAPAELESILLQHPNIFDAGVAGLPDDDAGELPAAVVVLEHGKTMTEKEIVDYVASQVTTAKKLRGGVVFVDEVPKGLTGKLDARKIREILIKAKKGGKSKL

In the case of `CCOC(=O)c1cc(C)sc1NC(=O)CSC1=NCCS1`, the EC50 on Protein RecA was 21.4 µM (active). For the same compound, the AC50 in test [1] was 12 µM (active). Take `COc1cccc(/N=C2\C(Cl)=C(O)OC2OC(=O)c2ccco2)c1` (stereo unspecified): the EC50 on Protein RecA was 14.6 µM (active). Besides, in test [1], the AC50 is 22.3 µM (active). As for `COC(=O)C1CCN(C(=O)COC(=O)c2ccc(OC)c(S(=O)(=O)N3CCCc4ccccc43)c2)CC1`, the EC50 in test [2] is > 260 µM (inactive). In the case of `CCOC(=O)C(C)n1cnc2c(nnn2-c2ccc(F)cc2)c1=O` (stereo unspecified), the EC50 in test [3] and in test [4] was > 112 µM (not active) each time. On to `CCN(CC)CCN1C(=O)C(O)=C(C(C)=O)C1c1ccccc1[N+](=O)[O-]` (stereo unspecified), for which the EC50 at Protein RecA is 3.71 µM (active). The AC50 in test [1] was 10 µM (active). As for `Cc1[nH]c2ccccc2c1C(=O)CSc1nncn1C`, the EC50 in test [3] and in test [4] was > 112 µM (not active) throughout. As for `COc1ccccc1Nc1nc(NCc2ccco2)c2ccccc2n1`, the EC50 in test [3] and in test [4] was > 112 µM (not active) throughout. `CC(NC(=O)c1cc(S(=O)(=O)N2CCCC2)cn1C)c1ccccc1` (stereo unspecified): the EC50 in test [3] and in test [4] was > 112 µM (not active) each time.

Turning to `O=C(O)c1c(Cl)c(Cl)c(Cl)c(Cl)c1C(=O)N1CCCC1`, the EC50 in test [2] was > 260 µM (inactive). As for `CCCCOP(=O)(OCCCC)C1(NS(=O)(=O)c2ccccc2)C=CC(=O)c2ccccc21` (stereo unspecified), the EC50 at Protein RecA was 1.82 µM (active). The AC50 in test [1] was 4.8 µM (active). As for `O=C(Nc1nccs1)c1ccc(COc2ccccc2Cl)o1`, the concentration at half-maximal activity (AC50) in test [5] was 2.45 µM (active). Still for that read-out and setting: with `Cc1cccc(C)c1NS(=O)(=O)c1ccc(NC(=O)c2ccc(Cl)c([N+](=O)[O-])c2)cc1` the figure was 1.46 µM (active). Take `CCOc1cc(C(=S)N2CCOCC2)ccc1OS(=O)(=O)c1ccc(C)cc1`: in test [2], the EC50 is > 260 µM (inactive).

As for `CCc1cc(C(=O)c2ccc(OC)cc2)c(N)s1`, the EC50 in test [2] was > 260 µM (inactive). On to `O=S(=O)(NC1CCCC1)c1ccc(S(=O)(=O)NC2CCCC2)cc1`, for which the EC50 in test [6] is > 53 µM (inactive). The same measure, in the same setting: with `O=c1c(/C=N/Nc2ccccc2)c(Sc2nnnn2-c2ccccc2)nc2ccccn12` the figure was 10.1 µM (active). For `Cn1cnc([N+](=O)[O-])c1Oc1cccc2ccccc12`, the EC50 at Protein RecA is 13.2 µM (active). The AC50 in test [1] is 28.3 µM (active). For the compound `Cc1ccc(Cl)cc1NC(=O)c1cc(S(=O)(=O)N2CCOCC2)cn1C`, the EC50 in test [3] and in test [4] was > 112 µM (not active) each time. As for `Cc1ccc(Nc2nc(N3CCOCC3)c3ccccc3n2)cc1`, the EC50 in test [3] and in test [4] was > 112 µM (not active) in each case. For the compound `CCOC(=O)c1c(C)nc2c(c1-c1ccc(Cl)cc1)C(=O)CC(C)(C)C2`, the AC50 in test [5] is 12.2 µM (active). For the compound `CC1=CC(=O)OC2CC3OC4C[C@@H](C)C5OC6CC7O[C@]8(C)C/C=C\C9OC%10CC%11OC(CC(C)C%12OCCO%12)CC(O)[C@]%11(C)OC%10CC9OC8C[C@]7(C)O[C@]6(C)CCC5OC4C[C@]3(C)OC12` (stereo partly specified), the EC50 in test [6] was 5.68 µM (active). For `CN(C)CCSc1n[nH]c2nc3ccccc3c-2n1`, the EC50 at Protein RecA was 2.79 µM (active). In test [1], the AC50 is 7.37 µM (active). Take `Cc1cccc(NC(=O)CC(C)S(=O)(=O)c2ccc3c(c2)NC(=O)CO3)c1C` (stereo unspecified): in test [2], the EC50 is > 260 µM (inactive). On to `CCc1ccc(CN2C(=O)c3ccccc3C2C(=O)NCC2CCCO2)cc1` (stereo unspecified), for which the EC50 in test [2] was 137 µM (active). Turning to `CCOC(=O)c1cc(NC(=O)COc2ccc([N+](=O)[O-])cc2)cc(C(=O)OCC)c1`, the EC50 in test [2] is > 260 µM (inactive). As for `CC(C)c1ccc(/C=N/NC(=O)c2nnn(-c3nonc3N)c2CSC2=NCCS2)cc1`, at Protein RecA, the EC50 is 8.86 µM (active). For the same compound, in test [1], the AC50 is 9.47 µM (active). With `COc1ccc(OC)c(NC(=O)NNC(=O)COc2ccc(-c3ccccc3)cc2)c1`, in test [5], the AC50 was 47.3 µM (active). Regarding `COc1ccc(C2NC(=O)c3[nH]nc(C)c32)c(OC)c1` (stereo unspecified), the EC50 was 2.83 µM (active) in test [3] and > 112 µM (not active) in test [4].

`Cc1ccc(NC(=O)CSCc2ccc(F)cc2)cc1`: the EC50 in test [3] and in test [4] was > 112 µM (not active) in each case. With `O=C1CC(c2ccc(F)cc2)CC2=Nc3ccccc3NC=C12` (stereo unspecified), in test [5], the AC50 was 3.58 µM (active). Take `COC(=O)c1ccc(N2CCN(CC(=O)c3ccc(-c4ccccc4)cc3)CC2)c([N+](=O)[O-])c1`: the EC50 in test [3] and in test [4] was > 112 µM (not active) in each case.

For `CCOc1ccc(CN(CCO)CCO)cc1C(=O)OC`, the EC50 in test [3] and in test [4] was > 112 µM (not active) each time. With `O=S(=O)(Nc1ccc(-c2ccc3nncn3n2)cc1)c1cc(F)ccc1F`, the EC50 in test [3] and in test [4] was > 112 µM (not active) throughout.
